Test system: blood clots (whole blood or plasma clot labelled with 125I-fibrinogen)
Test: in vitro clot lysis assay (release of 125I-fibrin-derived fragments, TPA-initiated lysis)
Format: biochemical
Details: buffer pH 7.5
Protocol: In the assay, whole blood or plasma is charged with ^125 I-fibrinogen Thrombin is added to initiate clot formation and subsequently incubated for 2 hours to complete the cross-linking by endogenous Factor XIII. Factor XIIIa inhibitor is added prior to clot initiation or at various times during the 2-hour incubation. At the end of this period, the labelled clot is washed and lysis is initiated by exogenous tissue plasminogen activator (TPA). Exogenous plasminogen is employed in some experiments Endogenous plasminogen is used for others. Clot dissolution as a function of time is monitored by the release of solubilized ^125 I-fibrin-derived fragments.
In FIGS. 1 and 2, the open symbols indicate absence of cerulenin and the closed symbols indicate the presence of 200μM cerulenin at the time of clot formation. Clot lysis is conducted in buffer, pH 7.5; 5 ng/mL TPA represents approximate physiologic concentration. 50 to […] represents pharmacologic concentration range. […] FIG. 2 studies employed glu-plasminogen levels at approximately 10 percent physiologic level ([…]).

## C/C=C/C/C=C/CCC(=O)[C@H]1O[C@H]1C(N)=O [Cerulenin, 3-(1-oxo-4,7-nonadienyl)-oxiranecarboxamide]
200μM inhibitor at clot formation, no exogenous plasminogen, TPA at physiological and pharmacological levels, FIG. 1
  rates and extents of clot lysis: enhanced rates and extents of lysis
200μM inhibitor, 12μg/mL exogenous glu-plasminogen, TPA, FIG. 2
  rate of TPA catalyzed clot lysis: lysis rates were further enhanced
